Data reported in patent publication US10294212B2 (CURADEV PHARMA PRIVATE LTD., priority 2013, dated 2019).

Assays:
[1] = target: Human indoleamine 2,3-dioxygenase1 (hIDO1) (Homo sapiens (Human), UniProt P14902); experiment: In-vitro IDO1 enzyme assay (conversion of L-tryptophan to KYN); assay type: biochemical; conditions: read-out: IC50 (IDO1) Enz
Outline: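 His-tagged hIDO1 (10 nM, E. coli-expressed) incubated with 30 μM L-tryptophan, 20 mM ascorbate, 10 μM methylene blue and 100 μg/mL catalase in 50 mM potassium phosphate pH 6.5, 30 min at 37 °C. TCA stop, then 65 °C hydrolysis; KYN measured by HPLC-UV at 360 nm or LC/MS/MS. IC50 by nonlinear regression versus 1% DMSO control.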

IDO1 in HeLa cells = IDO1 in HeLa cells (Homo sapiens (Human), UniProt P14902); experiment: HeLa cell based IDO1 assay (IFNγ-induced, KYN in supernatant)
Outline: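 HeLa cells were induced overnight with IFNγ (50 ng/mL), washed, then exposed to compound (typically 10 μM–1 nM) in HBSS with 80 μM L-tryptophan. Supernatant was TCA-treated at 65 °C for 15 min to convert N-formylkynurenine, and KYN was measured by HPLC-UV at 360 nm. IC50 came from nonlinear regression against a 1% DMSO control.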

[2] = target: Human TDO (hTDO)-transfected CHO-K1 cells (Homo sapiens (Human), UniProt P48775); experiment: CHO-K1 cell based TDO assay; conditions: hTDO cellular assay
Outline: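 Stably hTDO-expressing CHO-K1 cells were exposed to compounds (typically 31 μM to 10 nM) in HBSS with 80 μM L-tryptophan for 2 h. TCA-treated supernatant was heated at 65° C for 15 min to convert N-formylkynurenine, then kynurenine was quantified by LC/MS/MS. IC50 came from percent inhibition versus DMSO control.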

Chain of Human TDO (hTDO)-transfected CHO-K1 cells (P48775 whole entry): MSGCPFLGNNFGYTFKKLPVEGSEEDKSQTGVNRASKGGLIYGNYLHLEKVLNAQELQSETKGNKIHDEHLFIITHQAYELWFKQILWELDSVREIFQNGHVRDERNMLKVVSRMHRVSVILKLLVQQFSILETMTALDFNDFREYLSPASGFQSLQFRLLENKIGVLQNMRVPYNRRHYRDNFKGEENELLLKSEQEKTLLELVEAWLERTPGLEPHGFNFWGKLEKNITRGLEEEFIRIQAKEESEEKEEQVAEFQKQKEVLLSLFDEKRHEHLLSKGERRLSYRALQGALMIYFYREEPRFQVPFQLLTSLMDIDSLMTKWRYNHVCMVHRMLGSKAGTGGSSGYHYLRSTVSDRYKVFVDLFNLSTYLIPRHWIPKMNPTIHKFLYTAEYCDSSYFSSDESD
Chain of Human indoleamine 2,3-dioxygenase1 (hIDO1) (P14902 whole entry): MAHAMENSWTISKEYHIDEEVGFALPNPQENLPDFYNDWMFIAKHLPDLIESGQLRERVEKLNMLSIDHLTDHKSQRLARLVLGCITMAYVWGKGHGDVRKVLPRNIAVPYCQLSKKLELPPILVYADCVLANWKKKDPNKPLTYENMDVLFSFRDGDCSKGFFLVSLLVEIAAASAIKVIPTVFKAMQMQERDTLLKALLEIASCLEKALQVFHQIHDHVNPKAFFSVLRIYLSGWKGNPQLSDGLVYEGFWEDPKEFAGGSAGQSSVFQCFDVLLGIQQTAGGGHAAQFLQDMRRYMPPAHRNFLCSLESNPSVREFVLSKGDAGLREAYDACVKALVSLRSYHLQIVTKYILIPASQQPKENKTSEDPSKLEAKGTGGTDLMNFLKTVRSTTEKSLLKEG
Chain of IDO1 in HeLa cells (P14902 whole entry): as above

Structure (SMILES): Cc1cc(-c2cccc3c(Nc4ccc(F)c(Cl)c4)c(N)sc23)ccn1 [Compound 240, N^3-(3-Chloro-4-fluorophenyl)-7-(2-methylpyridin-4-yl)benzo[b]thiophene-2,3-diamine]
- IC50 [1]: < 200 nM
- IC50 (IDO1 in HeLa cells): < 200 nM
- IC50 [2]: > 2000 nM

Structure (SMILES): Cc1cc(-c2nc(F)cc3c(Nc4ccc(F)cc4)c(N)oc23)ccn1 [Compound 241, 5-Fluoro-N^3-(4-fluorophenyl)-7-(2-methylpyridin-4-yl)furo[2,3-c]pyridine-2,3-diamine]
- IC50 [1]: < 200 nM
- IC50 (IDO1 in HeLa cells): < 200 nM
- IC50 [2]: < 500 nM

Structure (SMILES): Cc1cc(-c2nccc3c(Nc4cccc(F)c4)c(N)oc23)ccn1 [Compound 243, N^3-(3-Fluorophenyl)-7-(2-methylpyridin-4-yl)furo[2,3-c]pyridine-2,3-diamine]
- IC50 [1]: < 200 nM
- IC50 (IDO1 in HeLa cells): < 200 nM
- IC50 [2]: < 500 nM

Structure (SMILES): Cc1cc(-c2nc(F)cc3c(Nc4ccc(F)c(Cl)c4)c(N)oc23)ccn1 [Compound 244, N^3-(3-Chloro-4-fluorophenyl)-5-fluoro-7-(2-methylpyridin-4-yl)furo[2,3-c]pyridine-2,3-diamine]
- IC50 [1]: < 200 nM
- IC50 (IDO1 in HeLa cells): < 200 nM
- IC50 [2]: 500 to 2000 nM

Structure (SMILES): Nc1oc2c(N3CCOCC3)nccc2c1Nc1ccc(F)c(Cl)c1 [Compound 245, N^3-(3-Chloro-4-fluorophenyl)-7-morpholinofuro[2,3-c]pyridine-2,3-diamine]
- IC50 [1]: < 200 nM
- IC50 (IDO1 in HeLa cells): < 200 nM
- IC50 [2]: 500 to 2000 nM

Structure (SMILES): Cc1cc(-c2nc(F)cc3c(Nc4ccc(F)c(F)c4)c(N)oc23)ccn1 [Compound 246, N^3-(3,4-Difluorophenyl)-5-fluoro-7-(2-methylpyridin-4-yl)furo[2,3-c]pyridine-2,3-diamine]
- IC50 [1]: < 200 nM
- IC50 (IDO1 in HeLa cells): < 200 nM
- IC50 [2]: 500 to 2000 nM

Structure (SMILES): Nc1oc2c(-c3ccc4ccccc4c3)nccc2c1Nc1ccc(F)c(Cl)c1 [Compound 247, N^3-(3-Chloro-4-fluorophenyl)-7-(naphthalen-2-yl)furo[2,3-c]pyridine-2,3-diamine]
- IC50 [1]: < 200 nM
- IC50 (IDO1 in HeLa cells): < 200 nM
- IC50 [2]: > 2000 nM

Structure (SMILES): Cc1cc(-c2cccc3c(Nc4cccc(Cl)c4)c(N)sc23)ccn1 [Compound 248, N^3-(3-Chlorophenyl)-7-(2-methylpyridin-4-yl)benzo[b]thiophene-2,3-diamine]
- IC50 [1]: < 200 nM
- IC50 (IDO1 in HeLa cells): < 200 nM
- IC50 [2]: 500 to 2000 nM

Structure (SMILES): Nc1oc2c(-c3ccnc(C(=O)Nc4ccccc4)c3)nccc2c1Nc1ccc(F)c(Cl)c1 [Compound 249, 4-(2-Amino-3-((3-chloro-4-fluorophenyl)amino)furo[2,3-c]pyridin-7-yl)-N-phenylpicolinamide]
- IC50 [1]: < 200 nM
- IC50 (IDO1 in HeLa cells): 200 to 1000 nM
- IC50 [2]: > 2000 nM

Structure (SMILES): CCCCNC(=O)c1cc(-c2nccc3c(Nc4ccc(F)c(Cl)c4)c(N)oc23)ccn1 [Compound 250, 4-(2-Amino-3-((3-chloro-4-fluorophenyl)amino)furo[2,3-c]pyridin-7-yl)-N-butylpicolinamide]
- IC50 [1]: < 200 nM
- IC50 (IDO1 in HeLa cells): < 200 nM
- IC50 [2]: > 2000 nM

Structure (SMILES): CC(C)(C)NC(=O)c1cc(-c2nccc3c(Nc4ccc(F)c(Cl)c4)c(N)oc23)ccn1 [Compound 251, 4-(2-Amino-3-((3-chloro-4-fluorophenyl)amino)furo[2,3-c]pyridin-7-yl)-N-(tert-butyl)picolinamide]
- IC50 [1]: < 200 nM
- IC50 (IDO1 in HeLa cells): < 200 nM
- IC50 [2]: > 2000 nM

Structure (SMILES): CC(C)CNC(=O)c1cc(-c2nccc3c(Nc4ccc(F)c(Cl)c4)c(N)oc23)ccn1 [Compound 252, 4-(2-Amino-3-((3-chloro-4-fluorophenyl)amino)furo[2,3-c]pyridin-7-yl)-N-isobutylpicolinamide]
- IC50 [1]: < 200 nM
- IC50 (IDO1 in HeLa cells): < 200 nM
- IC50 [2]: > 2000 nM

Structure (SMILES): CCCNC(=O)c1cc(-c2nccc3c(Nc4ccc(F)c(Cl)c4)c(N)oc23)ccn1 [Compound 253, 4-(2-Amino-3-((3-chloro-4-fluorophenyl)amino)furo[2,3-c]pyridin-7-yl)-N-propylpicolinamide]
- IC50 [1]: < 200 nM
- IC50 (IDO1 in HeLa cells): < 200 nM
- IC50 [2]: > 2000 nM

Structure (SMILES): Cc1cc(-c2nc(F)cc3c(Nc4cccc(Cl)c4)c(N)oc23)ccn1 [Compound 254, N^3-(3-Ahlorophenyl)-5-fluoro-7-(2-methylpyridin-4-yl)furo[2,3-c]pyridine-2,3-diamine]
- IC50 [1]: < 200 nM
- IC50 (IDO1 in HeLa cells): < 200 nM
- IC50 [2]: 500 to 2000 nM

Structure (SMILES): Cc1cc(-c2nccc3c(Nc4ccc(F)cc4F)c(N)oc23)ccn1 [Compound 256, N^3-(2,4-Difluorophenyl)-7-(2-methylpyridin-4-yl)furo[2,3-c]pyridine-2,3-diamine]
- IC50 [1]: < 200 nM
- IC50 (IDO1 in HeLa cells): < 200 nM
- IC50 [2]: < 500 nM

Structure (SMILES): Nc1oc2c(-c3ccnc(C(=O)NC4CCCCC4)c3)nccc2c1Nc1ccc(F)c(Cl)c1 [Compound 257, 4-(2-Amino-3-((3-chloro-4-fluorophenyl)amino)furo[2,3-c]pyridin-7-yl)-N-cyclohexylpicolinamide]
- IC50 [1]: < 200 nM
- IC50 (IDO1 in HeLa cells): < 200 nM
- IC50 [2]: > 2000 nM

Structure (SMILES): Nc1oc2c(-c3cc(Cl)cc(Cl)c3)nccc2c1Nc1ccc(F)c(Cl)c1 [Compound 258, N^3-(3-Chloro-4-fluorophenyl)-7-(3,5-dichlorophenyl)furo[2,3-c]pyridine-2,3-diamine]
- IC50 [1]: < 200 nM
- IC50 (IDO1 in HeLa cells): 200 to 1000 nM
- IC50 [2]: > 2000 nM

Structure (SMILES): CC(C)(C)c1cc(-c2nccc3c(Nc4ccc(F)c(Cl)c4)c(N)oc23)ccn1 [Compound 259, 7-(2-(tert-Butyl)pyridin-4-yl)-N^3-(3-chloro-4-fluorophenyl)furo[2,3-c]pyridine-2,3-diamine]
- IC50 [1]: < 200 nM
- IC50 (IDO1 in HeLa cells): 200 to 1000 nM
- IC50 [2]: > 2000 nM

Structure (SMILES): Nc1oc2c[n+]([O-])ccc2c1Nc1ccc(F)c(Cl)c1 [Compound 260, 2-Amino-3-((3-chloro-4-fluorophenyl)amino)furo[2,3-c]pyridine 6-oxide]
- IC50 [1]: 200 to 1000 nM
- IC50 (IDO1 in HeLa cells): 200 to 1000 nM
- IC50 [2]: 500 to 2000 nM

Structure (SMILES): Nc1oc2c(-c3ccc4c(c3)OCO4)nccc2c1Nc1ccc(F)c(Cl)c1 [Compound 261, 7-(Benzo[d][1,3]dioxol-5-yl)-N^3-(3-chloro-4-fluorophenyl)furo[2,3-c]pyridine-2,3-diamine]
- IC50 [1]: < 200 nM
- IC50 (IDO1 in HeLa cells): < 200 nM
- IC50 [2]: 500 to 2000 nM

Structure (SMILES): CCc1cc(-c2nccc3c(Nc4ccc(F)c(Cl)c4)c(N)oc23)ccn1 [Compound 262, N^3-(3-Chloro-4-fluorophenyl)-7-(2-ethylpyridin-4-yl)furo[2,3-c]pyridine-2,3-diamine]
- IC50 [1]: < 200 nM
- IC50 (IDO1 in HeLa cells): < 200 nM
- IC50 [2]: 500 to 2000 nM

Structure (SMILES): Cc1cc(-c2nccc3c(Nc4cc(Cl)ccc4F)c(N)oc23)ccn1 [Compound 263, N^3-(5-Chloro-2-fluorophenyl)-7-(2-methylpyridin-4-yl)furo[2,3-c]pyridine-2,3-diamine]
- IC50 [1]: < 200 nM
- IC50 (IDO1 in HeLa cells): < 200 nM
- IC50 [2]: > 2000 nM

Structure (SMILES): Cc1cc(-c2nccc3c(Nc4cccc(Cl)c4F)c(N)oc23)ccn1 [Compound 264, N^3-(3-Chloro-2-fluorophenyl)-7-(2-methylpyridin-4-yl)furo[2,3-c]pyridine-2,3-diamine]
- IC50 [1]: 200 to 1000 nM
- IC50 (IDO1 in HeLa cells): < 200 nM
- IC50 [2]: > 2000 nM

Structure (SMILES): Cc1cc(-c2nc(C)cc3c(Nc4ccc(F)c(Cl)c4)c(N)oc23)ccn1 [Compound 267, N^3-(3-Chloro-4-fluorophenyl)-5-methyl-7-(2-methylpyridin-4-yl)furo[2,3-c]pyridine-2,3-diamine]
- IC50 [1]: < 200 nM
- IC50 (IDO1 in HeLa cells): < 200 nM
- IC50 [2]: > 2000 nM

Structure (SMILES): Nc1oc2c(-c3ccnc(C(F)(F)F)c3)nccc2c1Nc1ccc(F)c(Cl)c1 [Compound 268, N^3-(3-Chloro-4-fluorophenyl)-7-(2-(trifluoromethyl)pyridin-4-yl)furo[2,3-c]pyridine-2,3-diamine]
- IC50 [1]: < 200 nM
- IC50 (IDO1 in HeLa cells): < 200 nM
- IC50 [2]: > 2000 nM

Structure (SMILES): CCOC(=O)Nc1oc2c(-c3ccnc(C)c3)nccc2c1N(C(=O)OCC)c1ccc(F)c(Cl)c1 [Compound 269, Ethyl (3-chloro-4-fluorophenyl)(2-((ethoxycarbonyl)amino)-7-(2-methylpyridin-4-yl)furo[2,3-c]pyridin-3-yl)carbamate]
- IC50 [1]: > 1000 nM
- IC50 (IDO1 in HeLa cells): > 1000 nM
- IC50 [2]: > 2000 nM

Structure (SMILES): Nc1oc2c(-c3ccnc(C(=O)N4CCCCC4)c3)nccc2c1Nc1ccc(F)c(Cl)c1 [Compound 271, (4-(2-Amino-3-((3-chloro-4-fluorophenyl)amino)furo[2,3-c]pyridin-7-yl)pyridin-2-yl)(piperidin-1-yl)methanone]
- IC50 [1]: < 200 nM
- IC50 (IDO1 in HeLa cells): < 200 nM
- IC50 [2]: 500 to 2000 nM

Structure (SMILES): Nc1oc2c(-c3ccnc(C(=O)N4CCOCC4)c3)nccc2c1Nc1ccc(F)c(Cl)c1 [Compound 272, (4-(2-Amino-3-((3-chloro-4-fluorophenyl)amino)furo[2,3-c]pyridin-7-yl)pyridin-2-yl)(morpholino)methanone]
- IC50 [1]: < 200 nM
- IC50 (IDO1 in HeLa cells): < 200 nM
- IC50 [2]: 500 to 2000 nM

Structure (SMILES): Nc1oc2c(-c3ccnc(C(=O)Nc4ccccn4)c3)nccc2c1Nc1ccc(F)c(Cl)c1 [Compound 273, 4-(2-Amino-3-((3-chloro-4-fluorophenyl)amino)furo[2,3-c]pyridin-7-yl)-N-(pyridin-2-yl)picolinamide]
- IC50 [1]: < 200 nM
- IC50 (IDO1 in HeLa cells): < 200 nM
- IC50 [2]: > 2000 nM
